Test results reported in patent US20160122320A1, “USEFUL COMBINATIONS OF MONOBACTAM ANTIBIOTICS WITH BETA-LACTAMASE INHIBITORS” (Basilea Pharmaceutica AG, priority 2005, published 2016).

What was measured:
Experiment in all cases: MIC, NCCLS broth microdilution
Format in all cases: cell-based
[1] = system: Klebsiella pneumoniae CF104
Protocol: (§2) Antimicrobial activity of the compounds and of their combinations was determined against a selection of organisms according to the standard procedures described by the National Committee for Clinical Laboratory Standards (National Committee for Clinical Laboratory. Standards (2000). Methods for Dilution Antimicrobial Susceptibility Tests for Bacteria That Grow Aerobically-Fifth Edition: Approved Standard M7-A5. NCCLS, Wayne, Pa., USA).
(§3) In all cases the final concentration of DMSO incubated with the bacteria is less than or equal to 1%. […] Plates were incubated overnight at an appropriate temperature (30° C. or 37° C.) and optical densities assessed by eye. The MIC value is defined as the lowest compound concentration completely inhibiting visible growth of the test organism. When combinations between compounds of formula I with compounds of formula II and are evaluated the compounds of formula I are tested in dilution series as described above while the compounds of formula II and III-XIII were present in all wells at a constant concentration of 4 μg/mL each.

[2] = system: Enterobacter aerogenes Zayakosky; conditions: Enterobacter aerogenes Zayakosky 5
Protocol: as §2, §3

Acinetobacter sp. J2 = conditions: Acinetobacter baumannii J2
Protocol: as §2, §3

[3] = system: Acinetobacter baumannii J51
How it was run: (§1)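 MIC read by eye as the lowest concentration giving no visible growth after overnight incubation (30° C. or 37° C.), following NCCLS M7-A5 microdilution with ≤1% final DMSO. For combinations, partner compounds (formula II, III-XIII) were fixed at 4 μg/mL each while formula I compounds were titrated.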

[4] = system: Pseudomonas aeruginosa 1973E
How it was run: as §1

[5] = system: Stenotrophomonas malthophilia 1AC736; conditions: Stenotrophomonas maltophilia 1AC736
Serratia marcescens S6 = system: Serratia marcescens S6
Enterobacter cloacae P99 = system: Enterobacter cloacae P99
[6] = system: Pseudomonas aeruginosa MK1184
[7] = with clavulanate (clavulanic acid)

CC1(C)[C@H](NC(=O)/C(=N\OCc2cc(=O)c(O)cn2O)c2csc(N)n2)C(=O)N1OS(=O)(=O)O [Compound 26, (3S)-3-{(2Z)-2-(2-amino(1,3-thiazol-4-yl))-3-[(1,5-dihydroxy-4-oxo(2-hydropyridyl))methoxy]-3-azaprop-2-enoylamino}-4,4-dimethyl-2-oxoazetidinyl hydroxysulfonate]
0.5 µg/mL: MIC of antibiotic at fixed inhibitor concentration of 4 mg/L [1, 7] | MIC of antibiotic at fixed inhibitor concentration of 4 mg/L ([2]; with BRL427158) | MIC of antibiotic at fixed inhibitor concentration of 4 mg/L (Acinetobacter sp. J2; with 501) | MIC of antibiotic at fixed inhibitor concentration of 4 mg/L (Acinetobacter sp. J2; with BRL427158)
2 µg/mL: MIC of antibiotic at fixed inhibitor concentration of 4 mg/L (Acinetobacter sp. J2; with 102 and sulbactam) | MIC of antibiotic at fixed inhibitor concentration of 4 mg/L (Acinetobacter sp. J2; with 324 and sulbactam) | MIC of antibiotic at fixed inhibitor concentration of 4 mg/L (Acinetobacter sp. J2; with sulbactam) | MIC of antibiotic at fixed inhibitor concentration of 4 mg/L ([3]; with 102 only) | MIC of antibiotic at fixed inhibitor concentration of 4 mg/L ([3]; with 324 and clavulanate) | MIC of antibiotic at fixed inhibitor concentration of 4 mg/L ([3]; with 324 only) | MIC of antibiotic at fixed inhibitor concentration of 4 mg/L ([3]; with sulbactam) | MIC of antibiotic at fixed inhibitor concentration of 4 mg/L ([4]; with 102 and clavulanate) | MIC of antibiotic at fixed inhibitor concentration of 4 mg/L ([4]; with 102 only) | MIC of antibiotic at fixed inhibitor concentration of 4 mg/L ([4]; with 324 and clavulanate) | MIC of antibiotic at fixed inhibitor concentration of 4 mg/L ([4]; with 324 and sulbactam) | MIC of antibiotic at fixed inhibitor concentration of 4 mg/L ([4]; with 501) | MIC of antibiotic at fixed inhibitor concentration of 4 mg/L ([4]; with BRL427158) | MIC of antibiotic at fixed inhibitor concentration of 4 mg/L [4, 7] | MIC of antibiotic at fixed inhibitor concentration of 4 mg/L ([4]; with sulbactam) | MIC of antibiotic at fixed inhibitor concentration of 4 mg/L ([4]; with tazobactam) | MIC of antibiotic at fixed inhibitor concentration of 4 mg/L (Enterobacter cloacae P99; with 102 and clavulanate) | MIC of antibiotic at fixed inhibitor concentration of 4 mg/L (Enterobacter cloacae P99; with 102 and sulbactam) | MIC of antibiotic at fixed inhibitor concentration of 4 mg/L (Enterobacter cloacae P99; with 324 and sulbactam) | MIC of antibiotic at fixed inhibitor concentration of 4 mg/L (Enterobacter cloacae P99; with 324 only) | MIC of antibiotic at fixed inhibitor concentration of 4 mg/L (Enterobacter cloacae P99; with 501) | MIC of antibiotic at fixed inhibitor concentration of 4 mg/L (Enterobacter cloacae P99; with BRL427158) | MIC of antibiotic ([6]; antibiotic alone, no inhibitor) | MIC of antibiotic at fixed inhibitor concentration of 4 mg/L ([6]; with 102 and clavulanate) | MIC of antibiotic at fixed inhibitor concentration of 4 mg/L ([6]; with 102 and sulbactam) | MIC of antibiotic at fixed inhibitor concentration of 4 mg/L ([6]; with 102 only) | MIC of antibiotic at fixed inhibitor concentration of 4 mg/L ([6]; with 324 and clavulanate) | MIC of antibiotic at fixed inhibitor concentration of 4 mg/L ([6]; with 324 and sulbactam) | MIC of antibiotic at fixed inhibitor concentration of 4 mg/L ([6]; with 501) | MIC of antibiotic at fixed inhibitor concentration of 4 mg/L ([6]; with BRL427158)
16 µg/mL: MIC of antibiotic at fixed inhibitor concentration of 4 mg/L ([1]; with 102 only) | MIC of antibiotic at fixed inhibitor concentration of 4 mg/L ([1]; with 324 only) | MIC of antibiotic ([2]; antibiotic alone, no inhibitor) | MIC of antibiotic at fixed inhibitor concentration of 4 mg/L ([2]; with 501) | MIC of antibiotic at fixed inhibitor concentration of 4 mg/L ([2]; with sulbactam) | MIC of antibiotic at fixed inhibitor concentration of 4 mg/L ([2]; with tazobactam) | MIC of antibiotic ([4]; antibiotic alone, no inhibitor) | MIC of antibiotic (Enterobacter cloacae P99; antibiotic alone, no inhibitor) | MIC of antibiotic at fixed inhibitor concentration of 4 mg/L (Enterobacter cloacae P99; with tazobactam)
>32 µg/mL: MIC of antibiotic at fixed inhibitor concentration of 4 mg/L (Acinetobacter sp. J2; [7])
<0.06 µg/mL: MIC of antibiotic ([5]; antibiotic alone, no inhibitor) | MIC of antibiotic (Serratia marcescens S6; antibiotic alone, no inhibitor) | MIC of antibiotic at fixed inhibitor concentration of 4 mg/L (Serratia marcescens S6; with 102 and sulbactam) | MIC of antibiotic at fixed inhibitor concentration of 4 mg/L (Serratia marcescens S6; with 324 and clavulanate) | MIC of antibiotic at fixed inhibitor concentration of 4 mg/L (Serratia marcescens S6; with 324 and sulbactam)
0.125 µg/mL: MIC of antibiotic at fixed inhibitor concentration of 4 mg/L ([1]; with BRL427158) | MIC of antibiotic at fixed inhibitor concentration of 4 mg/L ([5]; with 501) | MIC of antibiotic at fixed inhibitor concentration of 4 mg/L ([5]; with BRL427158)
8 µg/mL: MIC of antibiotic at fixed inhibitor concentration of 4 mg/L ([2]; with 102 only) | MIC of antibiotic at fixed inhibitor concentration of 4 mg/L ([2]; with clavulanic acid) | MIC of antibiotic at fixed inhibitor concentration of 4 mg/L (Enterobacter cloacae P99; [7]) | MIC of antibiotic at fixed inhibitor concentration of 4 mg/L (Enterobacter cloacae P99; with sulbactam)
0.25 µg/mL: MIC of antibiotic at fixed inhibitor concentration of 4 mg/L ([1]; with 102 and clavulanate) | MIC of antibiotic at fixed inhibitor concentration of 4 mg/L ([1]; with 324 and clavulanate) | MIC of antibiotic at fixed inhibitor concentration of 4 mg/L ([5]; with 102 and clavulanate) | MIC of antibiotic at fixed inhibitor concentration of 4 mg/L ([5]; with 102 and sulbactam) | MIC of antibiotic at fixed inhibitor concentration of 4 mg/L ([5]; with 102 only) | MIC of antibiotic at fixed inhibitor concentration of 4 mg/L ([5]; with 324 and clavulanate) | MIC of antibiotic at fixed inhibitor concentration of 4 mg/L ([5]; with 324 and sulbactam) | MIC of antibiotic at fixed inhibitor concentration of 4 mg/L ([5]; with 324 only)
1 µg/mL: MIC of antibiotic at fixed inhibitor concentration of 4 mg/L ([1]; with 102 and sulbactam) | MIC of antibiotic at fixed inhibitor concentration of 4 mg/L ([1]; with 324 and sulbactam) | MIC of antibiotic at fixed inhibitor concentration of 4 mg/L ([1]; with 501) | MIC of antibiotic at fixed inhibitor concentration of 4 mg/L ([1]; with sulbactam) | MIC of antibiotic at fixed inhibitor concentration of 4 mg/L ([1]; with tazobactam) | MIC of antibiotic at fixed inhibitor concentration of 4 mg/L ([3]; with 501) | MIC of antibiotic at fixed inhibitor concentration of 4 mg/L ([3]; with clavulanic acid) | MIC of antibiotic at fixed inhibitor concentration of 4 mg/L (Enterobacter cloacae P99; with 102 only) | MIC of antibiotic at fixed inhibitor concentration of 4 mg/L (Enterobacter cloacae P99; with 324 and clavulanate)
≦0.06 mg/L: MIC of antibiotic at fixed inhibitor concentration of 4 mg/L [5, 7] | MIC of antibiotic at fixed inhibitor concentration of 4 mg/L ([5]; with sulbactam) | MIC of antibiotic at fixed inhibitor concentration of 4 mg/L ([5]; with tazobactam) | MIC of antibiotic at fixed inhibitor concentration of 4 mg/L (Serratia marcescens S6; with 102 and clavulanate) | MIC of antibiotic at fixed inhibitor concentration of 4 mg/L (Serratia marcescens S6; with 102 only) | MIC of antibiotic at fixed inhibitor concentration of 4 mg/L (Serratia marcescens S6; with 324 only) | MIC of antibiotic at fixed inhibitor concentration of 4 mg/L (Serratia marcescens S6; with 501) | MIC of antibiotic at fixed inhibitor concentration of 4 mg/L (Serratia marcescens S6; with BRL427158) | MIC of antibiotic at fixed inhibitor concentration of 4 mg/L (Serratia marcescens S6; [7]) | MIC of antibiotic at fixed inhibitor concentration of 4 mg/L (Serratia marcescens S6; with sulbactam) | MIC of antibiotic at fixed inhibitor concentration of 4 mg/L (Serratia marcescens S6; with tazobactam)
32 µg/mL: MIC of antibiotic ([1]; antibiotic alone, no inhibitor) | MIC of antibiotic at fixed inhibitor concentration of 4 mg/L ([3]; with BRL427158)
4 µg/mL: MIC of antibiotic at fixed inhibitor concentration of 4 mg/L ([2]; with 102 and clavulanate) | MIC of antibiotic at fixed inhibitor concentration of 4 mg/L ([2]; with 324 and clavulanate) | MIC of antibiotic at fixed inhibitor concentration of 4 mg/L ([2]; with 324 only) | MIC of antibiotic (Acinetobacter sp. J2; antibiotic alone, no inhibitor) | MIC of antibiotic at fixed inhibitor concentration of 4 mg/L (Acinetobacter sp. J2; with 102 and clavulanate) | MIC of antibiotic at fixed inhibitor concentration of 4 mg/L (Acinetobacter sp. J2; with 102 only) | MIC of antibiotic at fixed inhibitor concentration of 4 mg/L (Acinetobacter sp. J2; with 324 and clavulanate) | MIC of antibiotic at fixed inhibitor concentration of 4 mg/L (Acinetobacter sp. J2; with 324 only) | MIC of antibiotic at fixed inhibitor concentration of 4 mg/L (Acinetobacter sp. J2; with tazobactam) | MIC of antibiotic ([3]; antibiotic alone, no inhibitor) | MIC of antibiotic at fixed inhibitor concentration of 4 mg/L ([3]; with 102 and clavulanate) | MIC of antibiotic at fixed inhibitor concentration of 4 mg/L ([3]; with tazobactam) | MIC of antibiotic at fixed inhibitor concentration of 4 mg/L ([4]; with 102 and sulbactam) | MIC of antibiotic at fixed inhibitor concentration of 4 mg/L ([4]; with 324 only) | MIC of antibiotic at fixed inhibitor concentration of 4 mg/L ([6]; with 324 only) | MIC of antibiotic at fixed inhibitor concentration of 4 mg/L [6, 7] | MIC of antibiotic at fixed inhibitor concentration of 4 mg/L ([6]; with sulbactam) | MIC of antibiotic at fixed inhibitor concentration of 4 mg/L ([6]; with tazobactam)
